We go through 5 molecules from PubChem BioAssay (NCI).

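Following 48 hours of exposure in 96-well plates, responses at five concentrations were used to interpolate endpoints linearly. GI50 marks 50% less growth. TGI denotes the concentration required for complete inhibition of growth.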

Test in all cases: NCI tumour cell line growth inhibition, 48 h
Assay [1] concerns SW-620 colon.
In assay [2] the test system is HOP-92 NSCLC.
The subject of assay [3] is ACHN renal.
The test system of assay [4] is HT29 colon.
Assay [5] relates to MOLT-4 leukemia.
The subject of assay [6] is NCI-H23 lung.
Assay [7] deals with DU-145 prostate.
Assay [8] relates to OVCAR-4 ovarian.
Assay [9] has as its system A498 renal.
Assay [10] has as its system OVCAR-8 ovarian.
In assay [11] the test system is HOP-62 NSCLC.
Assay [12] has as its system CCRF-CEM leukemia.
Assay [13] has as its system U251 CNS.

For `CC(CNc1nc(Nc2ccc(Cl)c(Cl)c2)nc(C(Cl)(Cl)Cl)n1)N(C)C` (stereo not given), the GI50 in [1] is 1600 nM; in [2], 1350 nM; in assay [3], 1560 nM; in assay [4], 1660 nM; in assay [5] it was 1720 nM; in [6] it was 1630 nM. Also, the GI50 in assay [7] is 1990 nM. Moreover, the TGI was 2.95 µM in assay [1]; 4.16 µM in assay [2]; 2.94 µM in [3]; 3.11 µM in assay [4]; 3.78 µM in assay [5]; 3.38 µM in [6]. Further, in [7], the TGI stood at 4.09 µM.

On to `CC1CC(c2ccc([N+](=O)[O-])cc2)=Nc2ccccc2S1=O` (stereo not given), for which the TGI in [8] was 62.3 µM; in assay [1], 29.3 µM; in [2], above 100 µM; in assay [9], 43.2 µM; in assay [3] it was 40.6 µM; in [10], 32.9 µM. The TGI in [11] was 75 µM; in assay [12] it was 42.2 µM; in assay [4], 27.2 µM; in assay [5] it was above 100 µM; in assay [13], 27.7 µM; in assay [6], 37.2 µM.

As to `C/C=C1/C(=O)O[C@]23C=C[C@@H]4C(C(=O)OC)=CO[C@H](O[C@@H]12)[C@@H]43`, the TGI amounted to 2.98 µM in [8]; 3.74 µM in assay [2]; 1.58 µM in assay [9]; 11.4 µM in assay [10]; 22 µM in [11]; 3.56 µM in [12]. Besides, the TGI in assay [4] turned out to be 9.06 µM; in assay [5], 3.83 µM; in [13], 5.9 µM; in assay [6], 3.51 µM.

As to `CCc1ncc(C(C)(O)c2ccccc2)n1Cc1ccccc1` (stereo not given), the TGI in [8], in [1], in assay [2], in assay [3], in [10] and in [12] was above 100 µM throughout. For the same molecule, the TGI in [4] is above 100 µM; in assay [5] it was 65.1 µM; in assay [13], above 100 µM; in assay [6], above 100 µM; in assay [7], above 100 µM.

Take `Cc1ccc(C(=O)N/N=C(\N=Nc2ccccc2)c2ccc(N(CCC#N)CCC#N)cc2C)cc1`: the TGI in assay [8], in [1], in assay [2], in assay [9], in assay [3] and in assay [10] was above 100 µM each time. Besides, the TGI was 52.9 µM in assay [11]; above 100 µM in assay [12]; above 100 µM in [4]; above 100 µM in [5]; above 100 µM in [13]; above 100 µM in assay [6]. In addition, the TGI in assay [7] is above 100 µM.
